Reference: article PMC10167348, “Structural mechanisms of TRPM7 activation and inhibition” (Nature Communications, 2023)

Columns and labels:
TRPM7-N752K = target: T1, TRPM7-N752K (Mus musculus, UniProt Q923J1, N752K); assay: Whole-cell patch-clamp recordings in HEK 293T cells; format: cell-based; conditions: 50 and 100 μM NTB
T1 construct: expressed in transfected cells; host or cells: HEK 293T
Method: (§1) Patch-clamp experiments were performed as reported previously, with a few modifications[69],[70]. HEK 293T cells grown in 35-mm dishes to ~60% confluence were transiently transfected with Trpm7 cDNAs in the pIRES2-EGFP vector (2 µg/dish). Patch-clamp experiments were conducted 18–22 h after transfection with cells displaying EGFP fluorescence. Whole-cell currents were recorded using an EPC10 patch-clamp amplifier and PatchMaster software (Version V2x69, Harvard Bioscience). Voltages were corrected for a liquid junction potential of 10 mV. Currents were elicited by voltage ramps from –100 mV to +100 mV over 50 ms acquired at 0.5 Hz. The inward and outward current amplitudes were measured at –80 mV and +80 mV and were normalized to the cell size as pA/pF. The capacitance was measured using the automated capacitance cancellation function of EPC10. The standard extracellular solution contained 140 mM NaCl, 2.8 mM KCl, 1 mM CaCl2, 2 mM MgCl2, 10 mM HEPES-NaOH, and 11 mM glucose (all from Sigma-Aldrich). Solutions were adjusted to pH 7.2 using an FE20 pH meter (Mettler Toledo) and to 290 mOsm using a Vapro 5520 osmometer (Wescor Inc). […] For the experiment with naltriben, the intracellular solution contained 120 mM Cs-glutamate, 8 mM NaCl, 10 mM Cs-EGTA, 1.5 mM MgCl2, and 10 mM HEPES-CsOH. The intracellular solution was also adjusted to pH 7.2 and 290 mOsm. Data are presented as the mean ± SEM Unless indicated otherwise, data were compared by unpaired t-test (GraphPad Prism 8.4.0). For multiple comparisons, ordinary one-way ANOVA (GraphPad Prism 8.4.0) was used. Significance was accepted at P ≤ 0.05.

TRPM7-L671A = target: T2, TRPM7-L671A (Mus musculus, UniProt Q923J1, L671A); assay: as above; format: cell-based; conditions: 50 and 100 μM NTB
T2 construct: expressed in transfected cells; host or cells: HEK 293T
Method: as §1

[1] = target: T3, purified TRPM7 reconstituted in lipid bilayers (Mus musculus, UniProt Q923J1); assay: Planar lipid bilayer single-channel recordings; format: biochemical; conditions: 2.5 μM NTB, membrane potential –100 mV, n = 3; Po without agonist 0.02 ± 0.01
T3 construct: truncated C-terminally (the corresponding protein residues 1–1280); GFP (N); thrombin cleavage site (LVPRG) (N); made in house; host or cells: HEK 293S GnTI- cells (BacMam baculovirus made in Sf9)
T3 sequence (Q923J1 1-1280): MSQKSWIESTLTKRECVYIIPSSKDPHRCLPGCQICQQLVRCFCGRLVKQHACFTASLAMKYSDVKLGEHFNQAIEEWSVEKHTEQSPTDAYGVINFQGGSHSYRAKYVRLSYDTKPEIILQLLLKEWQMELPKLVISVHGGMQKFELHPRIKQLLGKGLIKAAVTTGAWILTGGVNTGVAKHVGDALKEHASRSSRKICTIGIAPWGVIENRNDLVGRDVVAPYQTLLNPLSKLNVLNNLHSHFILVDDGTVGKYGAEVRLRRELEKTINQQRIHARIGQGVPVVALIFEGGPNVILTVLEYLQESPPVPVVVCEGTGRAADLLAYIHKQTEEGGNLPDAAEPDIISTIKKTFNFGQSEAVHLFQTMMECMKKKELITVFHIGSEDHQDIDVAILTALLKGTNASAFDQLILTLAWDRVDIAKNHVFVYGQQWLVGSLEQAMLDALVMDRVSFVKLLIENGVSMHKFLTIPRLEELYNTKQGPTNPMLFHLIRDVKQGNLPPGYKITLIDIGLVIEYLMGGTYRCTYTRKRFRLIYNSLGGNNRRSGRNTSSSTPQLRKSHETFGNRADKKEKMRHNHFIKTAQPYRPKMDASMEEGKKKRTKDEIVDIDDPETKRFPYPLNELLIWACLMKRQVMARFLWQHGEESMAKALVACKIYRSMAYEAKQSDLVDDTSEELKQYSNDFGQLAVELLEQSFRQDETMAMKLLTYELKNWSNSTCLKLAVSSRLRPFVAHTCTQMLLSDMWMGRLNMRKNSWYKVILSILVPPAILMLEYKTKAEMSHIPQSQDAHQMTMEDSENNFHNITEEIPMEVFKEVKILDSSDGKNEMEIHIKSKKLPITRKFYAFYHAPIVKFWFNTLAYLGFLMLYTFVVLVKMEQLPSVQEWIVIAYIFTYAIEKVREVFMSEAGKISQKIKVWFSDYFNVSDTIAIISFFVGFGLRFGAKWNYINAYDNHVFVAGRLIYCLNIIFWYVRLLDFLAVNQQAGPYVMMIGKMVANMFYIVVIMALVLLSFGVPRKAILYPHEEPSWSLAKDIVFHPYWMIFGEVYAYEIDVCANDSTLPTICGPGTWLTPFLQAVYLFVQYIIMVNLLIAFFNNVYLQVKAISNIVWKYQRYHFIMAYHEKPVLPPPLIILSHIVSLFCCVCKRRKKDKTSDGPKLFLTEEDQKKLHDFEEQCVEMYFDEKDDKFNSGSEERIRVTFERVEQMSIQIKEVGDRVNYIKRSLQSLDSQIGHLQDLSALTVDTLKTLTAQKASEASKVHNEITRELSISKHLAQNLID
Method: Planar lipid bilayers measurements were performed as described previously. Briefly, planar lipid bilayers were formed from a 30 mM solution of synthetic lipid mix POPC:POPE:POPG at a 3:1:1 ratio (Anatrace, P516:P416:P616) in n-decane (Sigma-Aldrich). The solution was used to paint a bilayer in an aperture of ∼150 µm diameter in a Meca chip (Nanion). Each cavity in the chip contained an individual integrated Ag/AgCl-microelectrode. The bathing solution contained 150 mM KCl, 0.02 mM MgCl2, 1 µM CaCl2 and 20 mM HEPES (pH 7.2). All the reagents (Sigma-Aldrich) were ultrapure (>99%). The bilayer capacitance was in the range of 5–10 pF.
The purified protein (10 ng/ml) was added to the bilayer-forming lipid mix (1 volume of protein to 1 volume of the lipid mix) and incubated for 30 min at 30 °C. […] Only after the incubated protein-lipid mix was added by painting, the unitary currents were recorded using an Orbit mini device (Nanion) controlled by the pCLAMP 10.2 software (Molecular Devices). Data were low-pass filtered at […] and digitized at 1.22 kHz. Single-channel conductance events, all-points histograms, and other parameters were identified and analyzed using the Clampfit 10.3 software (Molecular Devices). Only recordings with one channel incorporated into the lipid bilayer were subjected to single-channel analysis. […]

T1 sequence (Q923J1 whole entry N752K): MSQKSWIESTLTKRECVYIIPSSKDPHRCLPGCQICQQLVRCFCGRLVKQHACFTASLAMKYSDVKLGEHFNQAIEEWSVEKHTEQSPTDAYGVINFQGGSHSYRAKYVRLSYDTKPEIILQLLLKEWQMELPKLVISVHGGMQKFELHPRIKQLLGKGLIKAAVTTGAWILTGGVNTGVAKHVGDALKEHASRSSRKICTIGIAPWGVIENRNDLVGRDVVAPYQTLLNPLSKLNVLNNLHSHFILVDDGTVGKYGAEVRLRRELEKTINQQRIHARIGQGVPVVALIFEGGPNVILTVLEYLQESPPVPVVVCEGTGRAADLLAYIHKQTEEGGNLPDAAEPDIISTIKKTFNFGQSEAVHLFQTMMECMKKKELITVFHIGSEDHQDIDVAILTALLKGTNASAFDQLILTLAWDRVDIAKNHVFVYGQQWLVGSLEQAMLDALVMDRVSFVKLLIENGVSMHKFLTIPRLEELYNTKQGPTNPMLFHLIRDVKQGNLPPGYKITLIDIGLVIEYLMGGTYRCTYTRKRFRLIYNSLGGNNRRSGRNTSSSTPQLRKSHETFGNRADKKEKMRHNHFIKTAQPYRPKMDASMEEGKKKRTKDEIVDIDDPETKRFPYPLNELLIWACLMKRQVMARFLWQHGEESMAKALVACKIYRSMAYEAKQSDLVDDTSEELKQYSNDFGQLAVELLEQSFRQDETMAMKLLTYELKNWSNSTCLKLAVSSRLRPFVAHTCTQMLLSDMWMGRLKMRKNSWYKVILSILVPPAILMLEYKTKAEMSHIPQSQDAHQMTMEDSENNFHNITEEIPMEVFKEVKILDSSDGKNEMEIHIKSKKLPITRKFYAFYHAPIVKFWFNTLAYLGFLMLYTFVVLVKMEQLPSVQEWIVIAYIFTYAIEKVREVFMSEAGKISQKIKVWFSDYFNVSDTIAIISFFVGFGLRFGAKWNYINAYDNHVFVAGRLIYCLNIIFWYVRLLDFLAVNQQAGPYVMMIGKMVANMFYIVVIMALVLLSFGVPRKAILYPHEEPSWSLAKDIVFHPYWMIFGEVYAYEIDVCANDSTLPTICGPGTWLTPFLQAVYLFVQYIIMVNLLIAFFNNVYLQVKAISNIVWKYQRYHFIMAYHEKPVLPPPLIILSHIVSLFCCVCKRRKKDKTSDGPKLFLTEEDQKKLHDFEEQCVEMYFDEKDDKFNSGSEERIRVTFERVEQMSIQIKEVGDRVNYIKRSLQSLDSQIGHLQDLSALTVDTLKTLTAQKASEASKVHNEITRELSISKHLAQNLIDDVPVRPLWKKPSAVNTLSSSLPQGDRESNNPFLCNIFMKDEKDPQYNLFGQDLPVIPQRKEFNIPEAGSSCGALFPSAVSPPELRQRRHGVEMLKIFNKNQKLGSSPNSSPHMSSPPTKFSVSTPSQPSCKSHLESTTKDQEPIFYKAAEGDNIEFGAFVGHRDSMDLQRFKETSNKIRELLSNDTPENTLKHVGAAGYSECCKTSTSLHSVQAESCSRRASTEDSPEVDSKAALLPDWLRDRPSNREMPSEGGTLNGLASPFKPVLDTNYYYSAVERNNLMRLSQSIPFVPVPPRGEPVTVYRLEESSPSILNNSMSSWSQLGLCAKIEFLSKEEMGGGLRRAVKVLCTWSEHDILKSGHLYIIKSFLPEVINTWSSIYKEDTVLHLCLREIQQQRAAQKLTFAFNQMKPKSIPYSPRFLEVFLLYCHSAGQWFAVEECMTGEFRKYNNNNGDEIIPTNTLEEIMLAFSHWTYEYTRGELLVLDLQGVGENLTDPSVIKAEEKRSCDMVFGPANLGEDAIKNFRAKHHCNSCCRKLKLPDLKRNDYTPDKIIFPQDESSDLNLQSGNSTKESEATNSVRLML
T2 sequence (Q923J1 whole entry L671A): as the sequence (Q923J1 whole entry N752K) above, with L671A, K752N counted along it

Oc1ccc2c3c1O[C@H]1c4oc5ccccc5c4C[C@@]4(O)[C@@H](C2)N(CC2CC2)CC[C@]314 [Naltriben, naltriben]
sensitivity of TRPM7 currents to agonist, mutant vs WT (TRPM7-N752K): reduced sensitivity
sensitivity of TRPM7 currents to agonist, mutant vs WT (TRPM7-L671A): reduced sensitivity
open probability, Po [1]: 0.44 ± 0.25
